Test results taken from patent US4885277A, “Anticoagulant therapy” (Oklahoma Medical Research Foundation, priority 1987, dated 1989).
Where no end group is shown, it is not given here. [ ]: non-standard residue; d: D form. pGlu = O=C1CC[C@@H](C(=O)O)N1

Tested on: endothelial cellular receptors for Factor IX (cultured bovine aortic endothelial cells)
Experiment: Competitive binding of [125I]-Factor IX to cultured bovine aortic endothelial cells
Conditions: up to millimolar amounts of peptide
Description: The purified peptides were tested for their ability to block the binding of bovine Factor IX and IXa to cultured bovine aortic endothelial cells. Bovine Factor IX and IXa for these studies were prepared and radioiodinated (using Na^125 I and the solid state lactoperoxidase technique) using methods described by Stern, et al. (J. Biol. Chem. 260, pp. 6717-6722 [1985]). Bovine aortic endothelial cells were obtained from the aortae of newborn calves as described by Stern, et al. (Proc. Natl. Acad. Sci. U.S.A., 80, pp. 4119-4123 [1983]). These endothelial cells were grown to confluence (1.3×10^5 cells/cm^2) in culture dishes. Binding assays were carried out by incubating either ^125 I-Factor IX or ^125 I-Factor IXa with endothelial cell monolayers in the presence of varying concentrations of one of the peptides. The buffer used in these experiments was Minimal Essential Medium containing 0.5 mg/ml transferring, and the incubation time was 4-5 hours at 4° C. At the end of the incubation period, the cultures were washed to remove unbound material. Then, specifically bound [^125 I]-Factor IX or [^125 I]-Factor IXa was eluted during exposure to EDTA-containing buffer as described by Stern, et al. (Proc. Natl. Acad. Sci. U.S.A., 80, pp. 4119-4123 [1983].

Substance | inhibition of [125I]-Factor IX endothelial cell binding
DRVYVHPSL [Angiotensin I, control peptide for specificity] | no inhibition
PCA-Gly-Val-Asn-Glu-Glu-Gly-Phe-Phe-Ser-Ala-Arg ([pGlu]GVNEEGFFSAR) [fibrinopeptide B, control peptide for specificity] | no inhibition
